# Assay results: patent US6207399A, “Methods of determining endogenous thrombin potential (ETP) and thrombin substrates for use in said methods” (Hemker; Hendrik Coenraad, priority 1995, dated 2001)
# Square brackets hold non-standard residues; d marks the D form. Peptide text beside a SMILES is read from it. * marks the point of attachment. pNA = O=[N+]([O-])c1ccc(N*)cc1; Nle = CCCC[C@H](N)C(=O)O; Orn = NCCC[C@H](N)C(=O)O
# Experiments:
# Format in all cases: biochemical
# [1] = target: T1, factor Xa (Homo sapiens, UniProt P00742); assay: Kinetic parameters of hydrolysis of the substrates by factor Xa in buffer A at 37° C. (Example 4, Table 3); set-up: key to Factor Xa kcat: NH: no hydrolysis; conditions: for Factor Xa kcat / Factor Xa kcat /Km / Km: buffer A, 37° C., 50 nM factor Xa
# T1 construct: human factor Xa samples; gift of Dr. T. Lindhout (University of Limburg, Maastricht)
# T1 sequence (P00742 41-179 limits assumed): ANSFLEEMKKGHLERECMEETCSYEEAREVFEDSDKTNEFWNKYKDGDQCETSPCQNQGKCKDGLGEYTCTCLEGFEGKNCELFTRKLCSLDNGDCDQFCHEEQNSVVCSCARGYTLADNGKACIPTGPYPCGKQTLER
# T1 sequence (P00742 235-488 limits assumed): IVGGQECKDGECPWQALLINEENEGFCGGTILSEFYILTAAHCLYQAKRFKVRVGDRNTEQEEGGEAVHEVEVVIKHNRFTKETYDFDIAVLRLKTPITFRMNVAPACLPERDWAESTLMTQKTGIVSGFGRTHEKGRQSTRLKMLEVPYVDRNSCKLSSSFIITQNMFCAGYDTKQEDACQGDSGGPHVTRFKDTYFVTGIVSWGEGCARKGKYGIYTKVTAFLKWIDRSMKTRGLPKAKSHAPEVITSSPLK
# Method: (§1) Kinetic parameters: The hydrolysis experiments were run in buffer A at 37° C. The liberation of p-nitroaniline was monitored at 405 nm in a dual wavelength (405-546 nm) spectrophotometer made in our workshop, using a personal computer for data recording. In a polystyrene microcuvette (total volume 500 μL), buffer A and substrate solution were added to obtain a final substrate concentration between 200 to 2000 μM. After 5 min of incubation at 37° C., enzyme solution was added to achieve a final concentration between 0.5 to 50 nM. The measurement was carried out at 37° C. in a thermostated cuvette-holder. The Michaelis constant (Km) and the catalytic constant (kcat) were obtained by measuring the initial reaction velocities at different substrate concentrations. The data obtained were fitted by linear regression on the Michaelis-Menten equation.
# (§2) Kinetic parameters: The Km and kcat values for each substrate were determined at an enzyme concentration of 0.5-50 nM (thrombin) and 50 nM factor Xa. From the initial reaction velocities, measured for at least six substrate concentrations between 200 and 2000 μM, the Km and kcat values were calculated by linear regression on the Michaelis-Menten curve. Table 3 gives an overview of the kinetic parameters of the different substrates hydrolyzed by thrombin and by factor Xa in buffer A.
# [2] = target: thrombin (Homo sapiens, UniProt P00734); assay: Kinetic parameters of hydrolysis of the substrates by thrombin in buffer A at 37° C. (Example 4, Table 3); set-up: Pure human α-thrombin; gift of Dr. T. Lindhout (University of Limburg, Maastricht); key to Thrombin kcat: NH: no hydrolysis; conditions: for Thrombin kcat / Km / Thrombin kcat /Km: buffer A, 37° C.
# Method: as §1, §2
# [3] = target: T2, human α-thrombin (Homo sapiens, UniProt P00734); assay: Kinetics of hydrolysis of substrates by human α-thrombin in buffer A at 37° C. (Example 2, Table 1)
# T2 construct: Pure human α-thrombin; gift of Dr. T. Lindhout (University of Limburg, Maastricht)
# Method: as §1, with “between 1” for “between 200”, “to 100” for “to 50”, “measuring” for “measuring the”
# Kinetic parameters: In a preliminary experiment, the substrate was hydrolyzed under the following conditions: enzyme concentration: 10 to 20 nM, substrate concentration: 200 μM in buffer A to get an impression of the initial velocity. […] The results are given in table 1 and 2 for thrombin and factor Xa respectively. The Km and kcat for each substrate were determined from the initial velocities measured for at least six substrate concentrations in the concentration range as given. The enzyme concentration used gives a good signal to noise ratio. The data given are obtained from one or two experiments. The data from table 1 and 2 were only used as the first selection criterion to get a rough impression of the hydrolysis behaviour. Notwithstanding the preliminary character of the measurement it was helpful in the design of the substrates of our interest.
Structure (SMILES),Factor Xa kcat [1],Thrombin kcat [2],hydrolysis by Factor Xa (text on Table 3) [1],hydrolysis by thrombin (text on Table 3) [2],Km [3],kcat [3],kcat /Km [3],Km [2],Thrombin kcat /Km [2],Factor Xa kcat /Km [1],Km [1]
CC(C)[C@H](NC(=O)OCCS(C)(=O)=O)C(=O)N[C@@H](CCCCN)C(=O)Nc1ccc([N+](=O)[O-])cc1.Cl [Msc-Val-Lys-pNA.HCl],NH,NH,–,–,–,–,–,–,–,–,–
CCCC[C@H](NC(=O)[C@@H](NC(=O)CN)C(C)C)C(=O)Nc1ccc([N+](=O)[O-])cc1.Cl [HCl.H-Gly-Val-Nle-pNA] (H-Gly-Val-[Nle]-pNA),NH,NH,hydrolysed by neither thrombin nor Factor Xa,hydrolysed by neither thrombin nor Factor Xa,–,–,–,–,–,–,–
Cl.Cl.NCCCC[C@H](NC(=O)[C@@H]1CCCN1C(=O)[C@H](N)Cc1ccccc1)C(=O)Nc1ccc([N+](=O)[O-])cc1 [2HCl.H-D-Phe-Pro-Lys-pNA] (H-[dF]-Pro-Lys-pNA),NH,90 s⁻¹,–,–,35 µM,90.4 s⁻¹,2.58e+06 M/s,35 µM,2.58e+06 M/s,–,–
CCCC[C@H](NC(=O)[C@@H](NC(=O)OCCS(C)(=O)=O)C(C)C)C(=O)Nc1ccc([N+](=O)[O-])cc1 [Msc-Val-Nle-pNA],NH,NH,–,–,–,–,–,–,–,–,–
CC(C)[C@H](NC(=O)OCCS(C)(=O)=O)C(=O)N[C@@H](CCCN)C(=O)Nc1ccc([N+](=O)[O-])cc1.Cl [Msc-Val-Orn-pNA.HCl],NH,NH,–,–,–,–,–,–,–,–,–
"CC(C)[C@H](NC(=O)CNC(=O)CNC(=O)CNC(=O)[C@@H](N)CCC(=O)O)C(=O)N[C@@H](CCCNC(=N)N)C(=O)Nc1ccc([N+](=O)[O-])cc1 [2HCl.H-EGGGVR-pNA, 2HCl.H-Glu-Gly-Gly-Gly-Val-Arg-pNA] (H-EGGGVR-pNA)",0.30 s⁻¹,0.27 s⁻¹,–,–,–,–,–,379 µM,704 M/s,201 M/s,1490 µM
CC(C)[C@H](NC(=O)CNC(=O)[C@@H](N)CCC(=O)O)C(=O)N[C@@H](CCCNC(=N)N)C(=O)Nc1ccc([N+](=O)[O-])cc1 [2HCl.H-Glu-Gly-Val-Arg-pNA] (H-EGVR-pNA),0.93 s⁻¹,3.51 s⁻¹,–,–,–,–,–,3270 µM,1070 M/s,638 M/s,1430 µM
CC(C)C(N)C(=O)NC(CCCCN)C(=O)Nc1ccc([N+](=O)[O-])cc1.Cl.Cl (stereo not drawn) [2HCl.H-Val-Lys-pNA],NH,NH,–,–,–,–,–,–,–,–,–
CC(C)[C@H](NC(=O)CN)C(=O)N[C@@H](CCCN)C(=O)Nc1ccc([N+](=O)[O-])cc1.Cl.Cl [2HCl.H-Gly-Val-Orn-pNA] (H-Gly-Val-[Orn]-pNA),NH,NH,hydrolysed by neither thrombin nor Factor Xa,hydrolysed by neither thrombin nor Factor Xa,–,–,–,–,–,–,–
"CC(C)[C@H](NC(=O)CNC(=O)CNC(=O)[C@@H]1CCCN1C(=O)[C@@H](N)CCC(=O)O)C(=O)N[C@@H](CCCNC(=N)N)C(=O)Nc1ccc([N+](=O)[O-])cc1 [2HCl.H-EPGGVR-pNA, 2HCl.H-Glu-Pro-Gly-Gly-Val-Arg-pNA] (H-EPGGVR-pNA)",0.45 s⁻¹,NH,–,–,–,–,–,–,–,468 M/s,961 µM
"CC(C)[C@H](NC(=O)CNC(=O)[C@@H]1CCCN1C(=O)CNC(=O)[C@@H](N)CCC(=O)O)C(=O)N[C@@H](CCCNC(=N)N)C(=O)Nc1ccc([N+](=O)[O-])cc1 [2HCl.H-EGPGVR-pNA, 2HCl.H-Glu-Gly-Pro-Gly-Val-Arg-pNA] (H-EGPGVR-pNA)",3.41 s⁻¹,9.07 s⁻¹,–,–,–,–,–,1070 µM,8440 M/s,1560 M/s,2190 µM
CC(C)[C@H](NC(=O)[C@@H](N)CCC(=O)O)C(=O)N[C@@H](CCCNC(=N)N)C(=O)Nc1ccc([N+](=O)[O-])cc1.Cl.Cl [2HCl.H-Glu-Val-Arg-pNA] (H-Glu-Val-Arg-pNA),1.07 s⁻¹,1.44 s⁻¹,–,–,–,–,–,932 µM,1540 M/s,709 M/s,1510 µM
"CC(C)[C@H](NC(=O)CN)C(=O)N[C@@H](CCCCN)C(=O)Nc1ccc([N+](=O)[O-])cc1.Cl.Cl [2HCl.H-Gly-Val-Lys pNA, 2HCl.H-Gly-Val-Lys-pNA] (H-Gly-Val-Lys-pNA)",NH,0.20 s⁻¹,not by Factor Xa,hydrolysed by thrombin,–,–,–,986 µM,198 M/s,–,–
